The subject of assay [1] is BaF3-FL KIT D816V or BaF3-FL KIT V560G/D816V cell line. The experiment in a line: Cell-based assays of c-Kit mutant kinase activity (cell proliferation, ATPlite). To be noted: at least one of the c-kit cell assays of Example 7. The essentials: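 BaF3 cells dependent on transfected full-length human KIT D816V or V560G/D816V (pCI-Neo, CMV promoter) were seeded at 1×10^4 cells/well and exposed to 8-point 1:3 dilutions from 10 μM top (0.2% DMSO) for three days at 37° C. ATPlite luminescence gave cell number; IC50 from concentration-response.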

The next assay deals with c-Kit kinase (Homo sapiens (Human), UniProt P10721). The experiment in a line: c-Kit biochemical assay (AlphaScreen kinase activity). The essentials:
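AlphaScreen: c-Kit phosphorylates biotin-(E4Y)3 (100 nM) at 10 μM ATP, pH 7.2 HEPES buffer with Mg/Mn, 5% DMSO, 1 h room temperature; streptavidin donor and PY30 acceptor beads detect product. Second format: 100 μM ATP, 30 nM biotin-(E4Y)10, pH 7.5. IC50 from 8-point 1:3 dilution curves.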
Background: In Alpha technology, singlet oxygen from a donor bead excites a nearby acceptor bead.

Sequence of c-Kit kinase (P10721 26-976): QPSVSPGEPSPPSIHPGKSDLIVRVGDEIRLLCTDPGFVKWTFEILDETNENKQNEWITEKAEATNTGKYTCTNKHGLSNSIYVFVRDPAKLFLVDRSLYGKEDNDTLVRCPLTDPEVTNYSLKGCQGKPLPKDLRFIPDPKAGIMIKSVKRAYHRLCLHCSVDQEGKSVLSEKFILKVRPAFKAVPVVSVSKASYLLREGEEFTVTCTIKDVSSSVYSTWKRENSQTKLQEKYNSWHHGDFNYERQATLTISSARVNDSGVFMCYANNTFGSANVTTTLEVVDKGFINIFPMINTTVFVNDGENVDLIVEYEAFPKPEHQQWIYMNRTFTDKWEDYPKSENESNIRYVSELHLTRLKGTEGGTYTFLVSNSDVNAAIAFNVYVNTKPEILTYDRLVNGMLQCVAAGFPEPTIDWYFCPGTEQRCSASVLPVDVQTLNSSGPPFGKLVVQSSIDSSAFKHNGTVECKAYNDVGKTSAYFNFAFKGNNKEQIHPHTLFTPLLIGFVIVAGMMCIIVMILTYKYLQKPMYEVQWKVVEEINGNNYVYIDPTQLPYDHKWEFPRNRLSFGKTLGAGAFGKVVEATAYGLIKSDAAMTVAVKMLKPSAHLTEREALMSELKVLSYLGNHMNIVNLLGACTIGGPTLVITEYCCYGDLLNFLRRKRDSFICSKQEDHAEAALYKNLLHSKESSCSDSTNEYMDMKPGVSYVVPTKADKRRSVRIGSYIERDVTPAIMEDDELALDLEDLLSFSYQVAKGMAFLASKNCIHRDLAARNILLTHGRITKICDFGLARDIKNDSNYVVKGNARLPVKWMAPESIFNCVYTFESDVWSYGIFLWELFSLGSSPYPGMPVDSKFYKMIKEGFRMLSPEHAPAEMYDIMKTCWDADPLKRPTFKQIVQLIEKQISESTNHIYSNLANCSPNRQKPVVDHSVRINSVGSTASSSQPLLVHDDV

For `CC(=O)Nc1cccc(-c2cc3c(N4CCC(c5nc(C)c(-c6ccccc6)[nH]5)CC4)ncnc3[nH]2)c1` [P-3071, N-[3-[4-[4-(4-methyl-5-phenyl-1H-imidazol-2-yl)-1-piperidyl]-7H-pyrrolo[2,3-d]pyrimidin-6-yl]phenyl]acetamide], the IC50 (in general, the concentration at which inhibition is half-maximal) was less than 10 µM in assay [1] and 0.0001 to 1 µM on c-Kit kinase.

As to `COc1ccc(-c2cc3c(N4CCC(c5nc(C)c(-c6ccccc6)[nH]5)CC4)ncnc3[nH]2)cn1` [P-3072, 6-(6-methoxy-3-pyridyl)-4-[4-(4-methyl-5-phenyl-1H-imidazol-2-yl)-1-piperidyl]-7H-pyrrolo[2,3-d]pyrimidine], the IC50 was less than 10 µM in assay [1] and 1 to 10 µM against c-Kit kinase.

As for `Cc1nn(C)cc1-c1cc2c(N3CCC(c4nc(C)c(-c5ccccc5)[nH]4)CC3)ncnc2[nH]1` [P-3073, 6-(1,3-dimethylpyrazol-4-yl)-4-[4-(4-methyl-5-phenyl-1H-imidazol-2-yl)-1-piperidyl]-7H-pyrrolo[2,3-d]pyrimidine], the IC50 in assay [1] is less than 10 µM; against c-Kit kinase, 0.0001 to 1 µM.

On to `Cc1ccc(-c2cc3c(N4CCC(c5nc(C)c(-c6ccccc6)[nH]5)CC4)ncnc3[nH]2)cn1` [P-3074, 4-[4-(4-methyl-5-phenyl-1H-imidazol-2-yl)-1-piperidyl]-6-(6-methyl-3-pyridyl)-7H-pyrrolo[2,3-d]pyrimidine], for which the IC50 was less than 10 µM in assay [1] and 0.0001 to 1 µM against c-Kit kinase.

With `CCOc1cc(-c2cc3c(N4CCC(c5nc(C)c(-c6ccccc6)[nH]5)CC4)ncnc3[nH]2)ccn1` [P-3075, 6-(2-ethoxy-4-pyridyl)-4-[4-(4-methyl-5-phenyl-1H-imidazol-2-yl)-1-piperidyl]-7H-pyrrolo[2,3-d]pyrimidine], the figures for the IC50 (in assay [1]; against c-Kit kinase) were less than 10 µM and 0.0001 to 1 µM, respectively.

For `Cc1nc(C2CCN(c3ncnc4[nH]c(-c5ccnc(N6CCOCC6)c5)cc34)CC2)[nH]c1-c1ccccc1` [P-3076, 4-[4-[4-[4-(4-methyl-5-phenyl-1H-imidazol-2-yl)-1-piperidyl]-7H-pyrrolo[2,3-d]pyrimidin-6-yl]-2-pyridyl]morpholine], the IC50 is less than 10 µM in assay [1] and 0.0001 to 1 µM against c-Kit kinase.

Take `Cc1nc(C2CCN(c3ncnc4[nH]c(-c5ccnc(N6CCC(C)CC6)c5)cc34)CC2)[nH]c1-c1ccccc1` [P-3077, 4-[4-(4-methyl-5-phenyl-1H-imidazol-2-yl)-1-piperidyl]-6-[2-(4-methyl-1-piperidyl)-4-pyridyl]-7H-pyrrolo[2,3-d]pyrimidine]: the figures for the IC50 (in assay [1]; against c-Kit kinase) were less than 10 µM and 0.0001 to 1 µM, respectively.

For the molecule `Cc1nc(C2CCN(c3ncnc4[nH]c(-c5ccnc(OC(C)C)c5)cc34)CC2)[nH]c1-c1ccccc1` [P-3078, 6-(2-isopropoxy-4-pyridyl)-4-[4-(4-methyl-5-phenyl-1H-imidazol-2-yl)-1-piperidyl]-7H-pyrrolo[2,3-d]pyrimidine], the IC50 in assay [1] is less than 10 µM; at c-Kit kinase, 0.0001 to 1 µM.

Take `Cc1nc(C2CCN(c3ncnc4[nH]c(-c5ccnc(N6CCCC6)c5)cc34)CC2)[nH]c1-c1ccccc1` [P-3079, 4-[4-(4-methyl-5-phenyl-1H-imidazol-2-yl)-1-piperidyl]-6-(2-pyrrolidin-1-yl-4-pyridyl)-7H-pyrrolo[2,3-d]pyrimidine]: the values for the half-maximal inhibitory concentration (IC50) (in assay [1]; against c-Kit kinase) were less than 10 µM and 0.0001 to 1 µM, respectively.

As to `Cc1nc(C2CCN(c3ncnc4[nH]c(-c5cccc(OC(F)(F)F)c5)cc34)CC2)[nH]c1-c1ccccc1` [P-3080, 4-[4-(4-methyl-5-phenyl-1H-imidazol-2-yl)-1-piperidyl]-6-[3-(trifluoromethoxy)phenyl]-7H-pyrrolo[2,3-d]pyrimidine], the IC50 in assay [1] was less than 10 µM; against c-Kit kinase, 1 to 10 µM.

For `Cc1nc(C2CCN(c3ncnc4[nH]c(-c5cccc(F)c5)cc34)CC2)[nH]c1-c1ccccc1` [P-3081, 6-(3-fluorophenyl)-4-[4-(4-methyl-5-phenyl-1H-imidazol-2-yl)-1-piperidyl]-7H-pyrrolo[2,3-d]pyrimidine], the IC50 in assay [1] was less than 10 µM; against c-Kit kinase, 0.0001 to 1 µM.

On to `Cc1nc(C2CCN(c3ncnc4[nH]c(-c5cccc(NS(C)(=O)=O)c5)cc34)CC2)[nH]c1-c1ccccc1` [P-3083, N-[3-[4-[4-(4-methyl-5-phenyl-1H-imidazol-2-yl)-1-piperidyl]-7H-pyrrolo[2,3-d]pyrimidin-6-yl]phenyl]methane sulfonamide], for which the IC50 in assay [1] was less than 10 µM; against c-Kit kinase, 0.0001 to 1 µM.

Regarding `Cc1nc(C2CCN(c3ncnc4[nH]c(-c5ccc(F)cc5)cc34)CC2)[nH]c1-c1ccc2c(c1)OCCO2` [P-3084, 4-[4-[5-(2,3-dihydro-1,4-benzodioxin-6-yl)-4-methyl-1H-imidazol-2-yl]-1-piperidyl]-6-(4-fluorophenyl)-7H-pyrrolo[2,3-d]pyrimidine], the figures for the IC50 (in assay [1]; against c-Kit kinase) were less than 10 µM and 0.0001 to 1 µM, respectively.

Turning to `Cc1nc(C2CCN(c3ncnc4[nH]c(-c5ccc(F)cc5)cc34)CC2)[nH]c1-c1ccc(OC(F)(F)F)cc1` [P-3085, 6-(4-fluorophenyl)-4-[4-[4-methyl-5-[4-(trifluoromethoxy)phenyl]-1H-imidazol-2-yl]-1-piperidyl]-7H-pyrrolo[2,3-d]pyrimidine], the figures for the IC50 (in assay [1]; on c-Kit kinase) were less than 10 µM and 0.0001 to 1 µM, respectively.

Regarding `Cc1nc(C2CCN(c3ncnc4[nH]c(-c5ccc(C#N)cc5)cc34)CC2)[nH]c1-c1ccc(OC(F)(F)F)cc1` [P-3086, 4-[4-[4-[4-methyl-5-[4-(trifluoromethoxy)phenyl]-1H-imidazol-2-yl]-1-piperidyl]-7H-pyrrolo[2,3-d]pyrimidin-6-yl]benzonitrile], the IC50 in assay [1] is less than 10 µM; on c-Kit kinase, 1 to 10 µM.

Take `COc1cc(-c2cc3c(N4CCC(c5nc(C)c(-c6ccc(OC(F)(F)F)cc6)[nH]5)CC4)ncnc3[nH]2)ccn1` [P-3087, 6-(2-methoxy-4-pyridyl)-4-[4-[4-methyl-5-[4-(trifluoromethoxy)phenyl]-1H-imidazol-2-yl]-1-piperidyl]-7H-pyrrolo[2,3-d]pyrimidine]: the IC50 in assay [1] was less than 10 µM; against c-Kit kinase, 1 to 10 µM.

In the case of `COc1cc(-c2cc3c(N4CCC(c5nc(C)c(-c6ccc(C)cc6)[nH]5)CC4)ncnc3[nH]2)ccn1` [P-3088, 6-(2-methoxy-4-pyridyl)-4-[4-[4-methyl-5-(p-tolyl)-1H-imidazol-2-yl]-1-piperidyl]-7H-pyrrolo[2,3-d]pyrimidine], the figures for the IC50 (in assay [1]; against c-Kit kinase) were less than 10 µM and 0.0001 to 1 µM, respectively.

Regarding `COc1ccc(-c2[nH]c(C3(C)CCN(c4ncnc5[nH]c(-c6ccc(C#N)nc6)cc45)CC3)nc2C)cc1C` [P-3250, 5-[4-[4-[5-(4-methoxy-3-methyl-phenyl)-4-methyl-1H-imidazol-2-yl]-4-methyl-1-piperidyl]-7H-pyrrolo[2,3-d]pyrimidin-6-yl]pyridine-2-carbonitrile], the results for the IC50 (in assay [1]; on c-Kit kinase) were less than 10 µM and 0.0001 to 1 µM, respectively.

As for `CCOc1ccc(-c2[nH]c(C3(C)CCN(c4ncnc5[nH]c(-c6ccc(C#N)nc6)cc45)CC3)nc2C)cc1` [P-3251, 5-[4-[4-[5-(4-ethoxyphenyl)-4-methyl-1H-imidazol-2-yl]-4-methyl-1-piperidyl]-7H-pyrrolo[2,3-d]pyrimidin-6-yl]pyridine-2-carbonitrile], the IC50 in assay [1] is less than 10 µM; against c-Kit kinase, 0.0001 to 1 µM.

On to `Cc1nc(C2(C)CCN(c3ncnc4[nH]c(-c5ccc(NS(C)(=O)=O)cc5)cc34)CC2)[nH]c1-c1ccc(C(F)F)cc1` [P-3252, N-[4-[4-[4-[5-[4-(difluoromethyl)phenyl]-4-methyl-1H-imidazol-2-yl]-4-methyl-1-piperidyl]-7H-pyrrolo[2,3-d]pyrimidin-6-yl]phenyl]methanesulfonamide], for which the IC50 in assay [1] was less than 10 µM; against c-Kit kinase, 0.0001 to 1 µM.

Turning to `Cc1nc(C2(C)CCN(c3ncnc4[nH]c(-c5ccc(C(N)=O)cc5)cc34)CC2)[nH]c1-c1ccc(OC(F)F)cc1` [P-3253, 4-[4-[4-[5-[4-(difluoromethoxy)phenyl]-4-methyl-1H-imidazol-2-yl]-4-methyl-1-piperidyl]-7H-pyrrolo[2,3-d]pyrimidin-6-yl]benzamide], the IC50 was less than 10 µM in assay [1] and 0.0001 to 1 µM on c-Kit kinase.

`Cc1nc(C2(C)CCN(c3ncnc4[nH]c(-c5ccc(NS(C)(=O)=O)cc5)cc34)CC2)[nH]c1-c1ccc(OC(F)F)cc1` [P-3254, N-[4-[4-[4-[5-[4-(difluoromethoxy)phenyl]-4-methyl-1H-imidazol-2-yl]-4-methyl-1-piperidyl]-7H-pyrrolo[2,3-d]pyrimidin-6-yl]phenyl]methanesulfonamide]: the IC50 in assay [1] is less than 10 µM; against c-Kit kinase, 0.0001 to 1 µM.

As to `Cc1nc(C2(C)CCN(c3ncnc4[nH]c(-c5ccc(C#N)nc5)cc34)CC2)[nH]c1-c1cccc(OC(F)F)c1` [P-3255, 5-[4-[4-[5-[3-(difluoromethoxy)phenyl]-4-methyl-1H-imidazol-2-yl]-4-methyl-1-piperidyl]-7H-pyrrolo[2,3-d]pyrimidin-6-yl]pyridine-2-carbonitrile], the IC50 in assay [1] is less than 10 µM; against c-Kit kinase, 1 to 10 µM.

As for `COc1cccc(-c2[nH]c(C3(C)CCN(c4ncnc5[nH]c(-c6ccc(C#N)nc6)cc45)CC3)nc2C)c1` [P-3256, 5-[4-[4-[5-(3-methoxyphenyl)-4-methyl-1H-imidazol-2-yl]-4-methyl-1-piperidyl]-7H-pyrrolo[2,3-d]pyrimidin-6-yl]pyridine-2-carbonitrile], the concentration for half-maximal inhibition (IC50) was less than 10 µM in assay [1] and 0.0001 to 1 µM on c-Kit kinase.

These data come from patent US9771369B2, “Compounds and methods for kinase modulation, and indications therefor” (Plexxikon Inc., priority 2014, dated 2017).
